Among the data in ChEMBL document CHEMBL1158925, “New proazulene guaianolides from Thapsia villosa” (J Nat Prod, 1990) are Activity values, retold here.

Calls of active or inactive are those of the source. The calls are words filed in the database; no cut-off is given here.

Data set [1] in a line: Skin irritant activity in mouse ear at 10 ug after 24 hrs. The note with it: in vivo, topical_or_ocular. It is filed as ADME, tissue-based.
The test system of data set [2] is Mast cell. Briefly: Induction of histamine release in rat peritoneal mast cells at 10 uM. It is filed as functional, cell-based.

Consider `CCC(C)C(=O)O[C@H]1C[C@](C)(OC(C)=O)[C@@H]2[C@@H](C(C)=C[C@H]2O)[C@@H]2OC(=O)[C@@](C)(OC(C)=O)[C@@H]21` (stereo not given in full), for which the Activity entry in data set [1] is “Non-toxic”. Further, the outcome in data set [2] was inactive.

As to `CC(=O)O[C@@H]1C=C(C)[C@H]2[C@@H]3OC(=O)[C@@](C)(OC(C)=O)[C@@H]3[C@@H](OC(=O)C=C(C)C)C[C@](C)(OC(C)=O)[C@H]21`, in data set [1], the Activity result is reported as “Non-toxic”. In data set [2], the result was inactive.

On to `CCC(C)C(=O)O[C@H]1C[C@](C)(OC(C)=O)[C@@H]2[C@@H](C(C)=C[C@H]2OC(C)=O)[C@@H]2OC(=O)[C@@](C)(OC(C)=O)[C@@H]21` (stereo not given in full), for which, in data set [1], the Activity result is listed as “Non-toxic”. Also, the outcome in data set [2] was inactive.

With `CC(=O)O[C@@]1(C)C[C@H](OC(=O)C=C(C)C)[C@@H]2[C@@H](OC(=O)[C@@]2(C)OC(C)=O)[C@@H]2C(C)=C[C@@H](O)[C@@H]21`, the Activity entry in data set [1] is on record as “Non-toxic”. The result in data set [2] was inactive.

In the case of `C/C=C(/C)C(=O)O[C@H]1C(C)=C2[C@H]([C@@H]1OC(=O)CCCCCCC)[C@@](C)(OC(C)=O)C[C@H](OC(=O)CCC)[C@@]1(O)[C@H]2OC(=O)[C@@]1(C)O` [THAPSIGARGIN], the Activity result in data set [1] is “Non-toxic”. In addition, in data set [2], the outcome was inactive.
